The subject of assay [1] is epidermal keratinocytes of human neonates. In words: Oxytocin release by differentiated keratinocytes after ATP gamma s addition (ELISA of culture medium). It is filed as cell-based. How it is done: The keratinocytes used herein were epidermal keratinocytes of human neonates up to a passage number of 4 (Kurabo Industries Ltd.). The culture medium was Defined Keratinocyte-SFM (Invitrogen Japan K.K.). The keratinocytes were grown to confluence in 10-cm dishes at 37° C. for several days with the culture medium replaced on alternate days, and then the calcium chloride concentration in the culture medium was increased to 1.8 mM thereby inducing differentiation. After a lapse of 45 hours, adenosine-5′-(3-thio)triphosphoric acid tetralithium salt (Sigma Co., hereinafter referred to as “ATP gamma s-Li”) was added to each dish so as to make the final concentrations of 0, 10, 30, 100, and 300 μM, and the incubation of culture was continued at 37° C. The culture medium was collected 10 minutes after the addition of ATP gamma s, and the amount of oxytocin was measured with the ELISA method.
Oxytocin in the collected culture medium was purified and concentrated using a reversed phase column (C18 Sep-pak Light, Waters Co.), and eluted with an aqueous solution containing 60% acetonitrile and 0.1% trifluoroacetic acid. More specifically, the column eluate fraction containing oxytocin was freeze-dried, and dissolved again in a small amount of buffer solution (included in the EIA kit), and the oxytocin in the culture medium was concentrated at least 20 fold. Thereafter, the oxytocin concentration in the concentrated oxytocin solution was measured by the competitive ELISA method using Oxytocin EIA Kit (Assay Designs, Inc). The measurement procedure described in the instruction manual attached to the kit was followed. […] The absorbance of the color reaction by alkaline phosphatase was measured, and a semilogarithmic standard curve was generated by plotting the absorbance change due to the competitive inhibition against the known amount of oxytocin. The standard curve was used to determine the amount of oxytocin corresponding to the absorbance of the sample. […]

For assay [2], the system named is keratinocytes. The note with it: added to keratinocytes; J. Clin. Invest. (1992) 90, 42-51; Biochem. J. (2004) 380, 329-338; cited from earlier work.

Where a name gives a salt, the structure may show the parent alone.

As for `O=C(O)CN(CCOCCOCCN(CC(=O)O)CC(=O)O)CC(=O)O` [EGTA, ethylene glycol bis(2-aminoethyl ether) tetraacetic acid], the “effect of EGTA on the increase of oxytocin concentration with increases of ATP gamma s” value in assay [1] (2 mM EGTA added 5 minutes before ATP gamma s) is “inhibited”. Consider `Nc1ncnc2c1ncn2[C@@H]1O[C@H](COP(=O)(O)OP(=O)(O)OP(=O)(O)O)[C@@H](O)[C@H]1O` [ATP], for which the “Ca2+ concentration in the keratinocytes” value in assay [2] is recorded as “increase the Ca^2+ concentration in the keratinocytes in a concentration-dependent manner”. `Nc1ncnc2c1ncn2[C@@H]1O[C@H](COP(=O)(O)OP(=O)(O)OP(O)(O)=S)[C@@H](O)[C@H]1O` [ATP gamma s, adenosine-5′-(3-thio)triphosphoric acid tetralithium salt]: the “change of oxytocin concentration in the culture media with ATP gamma s concentration” value in assay [1] (0, 10, 30, 100, 300 μM ATP gamma s, 10 minutes, no EGTA) is reported as “increased with increases of ATP gamma s”. The “oxytocin concentration in the culture medium” value in assay [1] (300 μM ATP gamma s, medium collected 10 minutes after addition, 37° C., ELISA) was “exceeded 7 pg/mL”. In assay [2], the “Ca2+ concentration in the keratinocytes” value is “increase the Ca^2+ concentration in the keratinocytes in a concentration-dependent manner”.

The record behind these values is patent US8247382B2, “Method for increasing oxytocin release in the epidermis” (Shiseido Company, Ltd., priority 2008, dated 2012).
